Assay results as given in patent US11723360B2 (priority 2018, dated 2023).
In brackets after ≈: the same amount, converted by molar mass. Like-named read-outs stand apart in the source and are kept apart here.

Columns and labels:
Caenorhabditis elegans = assay: Insecticidal bioassay against Caenorhabditis elegans in 96-well plate; format: in vivo; conditions: for LC50: Caenorhabditis elegans
Experimental: 20 μL of 1 mg/mL methylmalonic acid aqueous solution was added to the 96-well plate, and at the same time, purified water was added; the final concentrations of the methylmalonic acid in the well plate was adjusted to […] in order; 40 nematodes were added to each well; and a bioassay system was 200 μL in total, with the purified water as a control. The process was repeated 3 times for each group. They were cultured in an incubator at 16° C.
20 μL of 1 mg/mL mixed aqueous solution of methylmalonic acid and betaine (mass ratio: 1:1) was added to the 96-well plate, and at the same time, purified water was added; the final concentrations of the compounded solution in the well plate was adjusted to 1000, 100, 25, 16.67, 12.5, 10, 1, 0.5, 0.25 μg/mL in order; and 40 nematodes were added to each well; a bioassay system was 200 μL in total, with the purified water as a control, and 3 times repeated for each group. They were cultured in an incubator at 16° C.

Meloidogyne incognita = assay: Insecticidal bioassay against root-knot nematodes in 96-well plate; design: Lethality Rate (%): dose or concentration left out as unconfirmed; conditions: for LC50: Meloidogyne incognita
Sclerotinia sclerotiorum = assay: Mycelium growth rate method, fungal plant pathogens; format: cell-based; design: key: +: effective; −: ineffective; conditions: 28° C.
Experimental: (§1) The mycelia of fungal pathogens were picked and inoculated to a PDA medium for activation. With a mycelium growth rate method, 200 μg/mL methylmalonic acid mother liquid was prepared using sterile water; 4.5 mL of sterile water was added to 0.5 mL of the mother liquid and evenly mixed; fungal masses were picked and placed in a PDA culture medium plate center, and then cultured at 28° C. to observe the results, with the sterile water as a negative control. After the plate was fully covered with the control mycelia, the diameters of the control and treatment colonies were counted with a crossing method.
as §1, with “μg/mL mixed aqueous solution of” for “μg/mL”, “acid and betaine (mass ratio: 1:1)” for “acid mother liquid”, “the mixed solution” for “the mother liquid”

Pestalotiopsis theae = assay: as above; format: cell-based; design: key: +: effective; −: ineffective; conditions: 28° C.
Experimental: as §1
as §1, with “μg/mL mixed aqueous solution of” for “μg/mL”, “acid and betaine (mass ratio: 1:1)” for “acid mother liquid”, “the mixed solution” for “the mother liquid”

Alternaria solani = assay: as above; format: cell-based; design: key: +: effective; −: ineffective; conditions: 28° C.
Experimental: as §1
as §1, with “μg/mL mixed aqueous solution of” for “μg/mL”, “acid and betaine (mass ratio: 1:1)” for “acid mother liquid”, “the mixed solution” for “the mother liquid”

Phytophthora capsici = assay: as above; format: cell-based; design: key: +: effective; −: ineffective; conditions: 28° C.
Experimental: as §1
as §1, with “μg/mL mixed aqueous solution of” for “μg/mL”, “acid and betaine (mass ratio: 1:1)” for “acid mother liquid”, “the mixed solution” for “the mother liquid”

Corynespora cassiicola = assay: as above; format: cell-based; design: key: +: effective; −: ineffective; conditions: 28° C.
Experimental: as §1
as §1, with “μg/mL mixed aqueous solution of” for “μg/mL”, “acid and betaine (mass ratio: 1:1)” for “acid mother liquid”, “the mixed solution” for “the mother liquid”

Fusarium oxysporum = assay: as above; format: cell-based; design: key: +: effective; −: ineffective; conditions: 28° C.
Experimental: as §1
as §1, with “μg/mL mixed aqueous solution of” for “μg/mL”, “acid and betaine (mass ratio: 1:1)” for “acid mother liquid”, “the mixed solution” for “the mother liquid”

Rhizoctonia solani = assay: as above; format: cell-based; design: key: +: effective; −: ineffective; conditions: 28° C.
Experimental: as §1
as §1, with “μg/mL mixed aqueous solution of” for “μg/mL”, “acid and betaine (mass ratio: 1:1)” for “acid mother liquid”, “the mixed solution” for “the mother liquid”

Botrytis cinerea = assay: as above; format: cell-based; design: key: +: effective; −: ineffective; conditions: 28° C.
Experimental: as §1
as §1, with “μg/mL mixed aqueous solution of” for “μg/mL”, “acid and betaine (mass ratio: 1:1)” for “acid mother liquid”, “the mixed solution” for “the mother liquid”

fungal plant pathogens = assay: Mycelium growth rate method, summary statement for all fungi tested; format: cell-based; conditions: Example 5
Experimental: as §1
as §1, with “μg/mL mixed aqueous solution of” for “μg/mL”, “acid and betaine (mass ratio: 1:1)” for “acid mother liquid”, “the mixed solution” for “the mother liquid”

Ralstonia solanacearum = format: cell-based
Xanthomonas campestris = assay: Agar plate diffusion method, bacterial plant pathogens; format: cell-based; conditions: 5 μL of 0.1 g/mL on 6 mm filter paper, 30° C.
Erwinia carotovora = assay: as above; format: cell-based
[1] = water, alcohol, ether; cited from earlier work
[2] = read-out: LC50 against the Meloidogyne incognita
[3] = read-out: LC50 value against the Meloidogyne incognita
[4] = 200 μg/mL mother liquid, 0.5 mL + 4.5 mL sterile water, PDA
[5] = Example 9: 200 μg/mL mixed aqueous solution of methylmalonic acid and betaine (1:1), 0.5 mL + 4.5 mL water
[6] = 5 μL of 0.1 g/mL on 6 mm filter paper, 30° C.

C[N+](C)(C)CC(=O)O [betaine]
LC50 (Caenorhabditis elegans; text of Examples 3 and 7, read-out: LC50 against the Caenorhabditis elegans): 14.8 µg/mL | LC50 (Meloidogyne incognita; [2]): 75.2 µg/mL | LC50 (Meloidogyne incognita; [3]): 75.2 µg/mL

CC(C(=O)O)C(=O)O [methylmalonic acid]
Microbicidal Effect (Sclerotinia sclerotiorum; [4]): − | Microbicidal Effect (Sclerotinia sclerotiorum; [5]): − | Microbicidal Effect (Pestalotiopsis theae; [4]): − | Microbicidal Effect (Pestalotiopsis theae; [5]): − | Microbicidal Effect (Alternaria solani; [4]): − | Microbicidal Effect (Alternaria solani; [5]): − | Microbicidal Effect (Phytophthora capsici; [4]): − | Microbicidal Effect (Phytophthora capsici; [5]): − | Microbicidal Effect (Corynespora cassiicola; [4]): − | Microbicidal Effect (Corynespora cassiicola; [5]): − | Microbicidal Effect (Fusarium oxysporum; [4]): − | Microbicidal Effect (Fusarium oxysporum; [5]): − | Microbicidal Effect (Rhizoctonia solani; [4]): − | Microbicidal Effect (Rhizoctonia solani; [5]): − | Microbicidal Effect (Botrytis cinerea; [4]): − | Microbicidal Effect (Botrytis cinerea; [5]): − | microbicidal activity against the fungal plant pathogens (fungal plant pathogens): showed no microbicidal activity | LC50 (Caenorhabditis elegans; 16° C., table value, read-out: Medial Lethal Concentration (LC50, ug/mL)): 1.2 µg/mL (≈ 10.2 µM) | LC50 (Caenorhabditis elegans; read-out: LC50 value against the Caenorhabditis elegans, text of Example 3): 1.2 µg/mL (≈ 10.2 µM) | Lethality Rate (%) (Caenorhabditis elegans; Dose 1 pg/mL): 18.4% | Lethality Rate (%) (Caenorhabditis elegans; Dose 10 pg/mL): 70.0% | Lethality Rate (%) (Caenorhabditis elegans; Dose 16.67 pg/mL): 94.9% | Lethality Rate (%) (Caenorhabditis elegans; Dose 25 pg/mL): 90.5% | Lethality Rate (%) (Caenorhabditis elegans; Dose 100 pg/mL): 97.4% | Lethality Rate (%) (Caenorhabditis elegans; Dose 1000 pg/mL): 97.5% | Lethality Rate (%) (Meloidogyne incognita; Dose 1): 8.1% | Lethality Rate (%) (Meloidogyne incognita; Dose 10): 12.5% | Lethality Rate (%) (Meloidogyne incognita; Dose 12.5): 29.3% | Lethality Rate (%) (Meloidogyne incognita; Dose 16.67): 76.3% | Lethality Rate (%) (Meloidogyne incognita; Dose 25): 81.1% | Lethality Rate (%) (Meloidogyne incognita; Dose 50): 80% | Lethality Rate (%) (Meloidogyne incognita; Dose 100): 97.5% | Lethality Rate (%) (Meloidogyne incognita; Dose 1000): 97.4% | LC50 (Meloidogyne incognita; [2]): 13.1 µg/mL (≈ 111 µM) | LC50 (Meloidogyne incognita; [3]): 13.1 µg/mL (≈ 111 µM) | LC50 (Meloidogyne incognita; read-out: Medial Lethal Concentration (LC50, ug/mL)): 13.1 µg/mL (≈ 111 µM) | Diameter of Inhibition Zone (Ralstonia solanacearum; [6]): 12 mm | Microbicidal Effect (Ralstonia solanacearum; [6]): ++ (with microbicidal activity, and the diameter of an inhibition zone being more than 10 mm) | microbicidal activity against the Pseudomonas solanacearum (Ralstonia solanacearum; 5 μL of 0.1 g/mL, Example 4): showed a microbicidal activity | Diameter of Inhibition Zone (Xanthomonas campestris): 0 mm | Microbicidal Effect (Xanthomonas campestris): − | Diameter of Inhibition Zone (Erwinia carotovora; [6]): 6.9 mm | Microbicidal Effect (Erwinia carotovora; [6]): + (with microbicidal activity, the diameter of an inhibition zone being less than 10 mm) | microbicidal activity against the Erwinia carotovora (Erwinia carotovora; 5 μL of 0.1 g/mL, Example 4): showed a microbicidal activity | solubility (physical properties) [1]: soluble in water, alcohol and ether
